Results taken from paper PMC12257073 (Cancer Research Communications, 2025).
“And” between values parts separate entries of the source, which are not always exact repeats. Equal entries are not always repeated. Where two headings read alike, the source gives them in different places.

Tests used:
p-H2AX = p-H2AX in peripheral blood by spectral flow cytometry; assay type: in vivo, human; conditions: cycle 1, CR (n = 2), CRh/CRi/MLFS (n = 8), SD, treatment failure or early death (n = 7)
Description: In brief, Ficoll-enriched peripheral blood mononuclear cells were stained for external markers, fixed, permeabilized, and then stained for p-H2AX (Thermo Fisher Scientific; AB_2896984). Sample analysis was performed in the Ohio State University Comprehensive Cancer Center Flow Cytometry Shared Resource and Immune Monitoring & Discovery Platform using the Cytek Aurora. Data were analyzed using FCS Express version 7 (De Novo Software).
Based on the observation that TP-0903 upregulates p-H2AX, a marker of DNA damage, in TP53-mutated cell lines ([24]), we hypothesized that p-H2AX could serve as a clinical biomarker for TP-0903 activity. Analysis of peripheral blood from days 1 and 10 of cycle 1 was performed by spectral flow cytometry. The mean fluorescence intensity was measured for p-H2AX, and then values at day 10 were normalized using baseline values collected on day 1 (Supplementary Fig. S4).

TP53 = TP53 variant allele frequency by serial targeted next-generation sequencing; assay type: in vivo, human
Description: Mutations in germline and serial bone marrow or blood samples were determined by targeted next-generation sequencing (NGS). NGS aligned read files are available in the NCBI’s Sequence Read Archive under accession PRJNA1236309. See Supplementary Methods for details.
Genomic DNA was isolated from cryopreserved cells with QIAmp DNA Mini Kit (Qiagen) and fragmented using ME220 Focused-ultrasonicator (Covaris; SCR_019818). Libraries were generated using xGen™ DNA Lib Prep MC UNI kit and target capture was done using xGen AML Cancer Hybridization Panel in conjunction with a 3 gene spike-in pool for ZRSR2, AXL, and ASXL2 (Integrated DNA Technologies). DNA library preparations were performed according to the manufacturer’s instructions and sequenced on an Illumina Novaseq (OSUCCC Genomics Shared Resource) (SCR_016387). Sequenced reads were aligned to the GRCh38 genome build using the Burrows-Wheeler Aligner (BWA) (SCR_010910). Picard Tools was used to perform UMI-consensus calling on the aligned reads. The Genome Analysis Toolkit (GATK) (SCR_001876) was used to realign insertions and deletions in the aligned reads and to perform base quality score recalibration for those realigned regions. GATK’s MuTect2 (SCR_026692) was used to perform variant calling. After variant calling, variants were annotated using SnpEff (SCR_005191) and vcfanno (SCR_024372) along with the dbsnp (SCR_002338), COSMIC (SCR_002260), and gnomad variant databases (SCR_014964). The Mucor3 algorithm was used as the baseline for integrative mutation assessment. Visual inspection of all variants was carried out using Integrative Genomics Viewer v.2.8 (Broad Institute).

[1] = tested on: newly diagnosed AML with mutations in TP53 and/or complex karyotype; experiment: Overall survival and duration of response (Kaplan–Meier); assay type: in vivo, human; conditions: for Response duration: No. of events / Response duration: median (95% CI): patients who achieved CR/CRh/CRi
Description: Demographics were summarized by descriptive statistics. Duration of response was calculated from the date when composite CR was achieved to […], censoring patients who remained alive and relapse-free at the time of the last follow-up. OS was calculated from treatment start to all-cause death, censoring patients who were alive at the time of the last follow-up. Kaplan–Meier methodology was used to assess OS and duration of response.

[2] = tested on: newly diagnosed AML with mutations in TP53 and/or complex karyotype
Description: Dose-limiting toxicities (DLT) were evaluated to establish the dose brought forward for an expansion cohort (phase 2).
The primary endpoint was achievement of CR within six cycles of therapy. Secondary endpoints included toxicity, duration of response, OS, and the proportion of eligible patients who effectively transitioned to allogeneic stem cell transplantation. Exploratory endpoints included pharmacokinetics (PK), correlative genetic, and biochemical data; correlations between morphologic remission, spectral flow cytometry, and mutational remission; and duration of remission or survival. […] Adverse events (AE) were graded according to the NCI Common Terminology Criteria for Adverse Events version 4.0 ([27]).
The phase 1b portion of the study used a standard 3 + 3 design with dose-escalation based on DLT. […] In the first stage, if four or more of 12 patients achieved CR, then an additional 21 patients would be enrolled for a total of 33 patients. At the end of the study, if 12 or more of all 33 patients achieved CR, then the null hypothesis would be rejected.

[3] = Treatment duration and reasons off treatment
[4] = TP53-mutated patients, TP-0903 + decitabine, n = 20
[5] = TP53-mutated patients, TP-0903 + decitabine
[6] = group 1, TP-0903 37 mg/day + decitabine, n = 15
[7] = group 1, TP-0903 37 mg/day + decitabine
[8] = group 2, TP-0903 25 mg/day + decitabine, n = 12
[9] = group 2, TP-0903 25 mg/day + decitabine
[10] = overall, TP-0903 + decitabine, n = 27
[11] = group 1, 37 mg TP-0903 + decitabine, 15 patients
[12] = group 2, 25 mg TP-0903 + decitabine, 12 patients

CN1CCN(Cc2ccc(Nc3ncc(Cl)c(Nc4ccccc4S(=O)(=O)N(C)C)n3)cc2)CC1.O=C(O)C(O)C(O)C(=O)O.O=C(O)C(O)C(O)C(=O)O [TP-0903, 2-(5-chloro-2-(4-((4-methylpiperazin-1-yl)methyl)phenylamino)pyrimidin-4-yl)amino-N,N-dimethylbenzene-1-sulfonamide di-tartrate salt]
Change in p-H2AX mean fluorescence intensity, day 10 normalized to day 1 (p-H2AX): no significant change | Change in TP53 VAF (TP53; patients who achieved CR, n = 5, P < 0.01): significantly decreased | Change in TP53 VAF (TP53; patients who achieved CRh/CRi/MLFS, n = 7, P < 0.01): significantly decreased | Change in TP53 VAF (TP53; patients who had SD, treatment failure, or early death, n = 3): not significantly changed | OS: No. of events (deaths) [1, 4]: 13 | OS: median (95% CI) [1, 4]: 10.0 (2.0–20.6) months | Response duration: No. of events [1, 5]: 6 | Response duration: median (95% CI) [1, 5]: 10.6 (3.3–NE) months | OS: No. of events (deaths) [1, 6]: 10 | OS: median (95% CI) [1, 6]: 7.6 (2.0–20.6) months | Response duration: No. of events [1, 7]: 3 | Response duration: median (95% CI) [1, 7]: 13.8 months and 13.8 (7.3–NE) months | OS: No. of events (deaths) [1, 8]: 7 | OS: median (95% CI) [1, 8]: 7.5 months and 7.5 (1.1 – NE) months | Response duration: No. of events [1, 9]: 5 | Response duration: median (95% CI) [1, 9]: 4.6 months and 4.6 (1.8–NE) months | OS: No. of events (deaths) [1, 10]: 17 | OS: median (95% CI) [1, 10]: 7.6 (3.3–13.4) months | Response duration: No. of events ([1]; overall, TP-0903 + decitabine): 8 | Response duration: median (95% CI) ([1]; overall, TP-0903 + decitabine): 7.3 (3.3–13.8) months | Best response by 6 cycles: CR [2, 4]: 5 (25) no. (%) | Best response by 6 cycles: CRh [2, 4]: 4 (20) no. (%) | Best response by 6 cycles: CRi [2, 4]: 0 (0) no. (%) | Best response by 6 cycles: MLFS [2, 4]: 2 (10) no. (%) | Best response by 6 cycles: NE (not evaluable) [2, 4]: 4 (20) no. (%) | Best response by 6 cycles: SD [2, 4]: 4 (20) no. (%) | Best response by 6 cycles: Treatment failure [2, 4]: 1 (5) no. (%) | Overall composite remission rate (CR/CRh/CRi) [2, 4]: 9 (45, 23.1–68.5) no. (%, 95% CI) | Overall response rate (CR/CRh/CRi/MLFS) [2, 4]: 11 (55, 31.5–76.9) no. (%, 95% CI) | CR in patients without a TP53 mutation ([2]; five patients without a TP53 mutation, TP-0903 + decitabine): none of the five patients without a TP53 mutation achieved CR | Overall composite remission rate (CR/CRi/CRh) ([2]; group 1, 37 mg TP-0903 + decitabine, 5/15): 33.3% | CR rate within six cycles (primary endpoint) [2, 11]: 13.3% and 13% | CRh rate [2, 11]: 20% | MLFS rate [2, 11]: 7% | Stable disease (SD) rate [2, 11]: 33% | Treatment failure rate [2, 11]: 13% | Best response by 6 cycles: CR [2, 6]: 2 (13.3) no. (%) | Best response by 6 cycles: CRh [2, 6]: 3 (20) no. (%) | Best response by 6 cycles: CRi [2, 6]: 0 (0) no. (%) | Best response by 6 cycles: MLFS [2, 6]: 1 (6.7) no. (%) | Best response by 6 cycles: NE (not evaluable) [2, 6]: 2 (13.3) no. (%) | Best response by 6 cycles: SD [2, 6]: 5 (33.3) no. (%) | Best response by 6 cycles: Treatment failure [2, 6]: 2 (13.3) no. (%) | Overall composite remission rate (CR/CRh/CRi) [2, 6]: 5 (33.3, 11.8–61.6) no. (%, 95% CI) | Overall response rate (CR/CRh/CRi/MLFS) [2, 6]: 6 (40, 16.3–67.7) no. (%, 95% CI) | Overall composite remission rate (CR/CRi/CRh) ([2]; group 2, 25 mg TP-0903 + decitabine, 6/12): 50% | CR rate within six cycles (primary endpoint) [2, 12]: 25% | CRh rate [2, 12]: 8% | CRi rate [2, 12]: 17% | MLFS rate [2, 12]: 8% | Patients who stopped treatment within four and 5 days because of AEs [2, 12]: 17% | Stable disease (SD) rate [2, 12]: 25% | Best response by 6 cycles: CR [2, 8]: 3 (25) no. (%) | Best response by 6 cycles: CRh [2, 8]: 1 (8.3) no. (%) | Best response by 6 cycles: CRi [2, 8]: 2 (16.7) no. (%) | Best response by 6 cycles: MLFS [2, 8]: 1 (8.3) no. (%) | Best response by 6 cycles: NE (not evaluable) [2, 8]: 2 (16.7) no. (%) | Best response by 6 cycles: SD [2, 8]: 3 (25) no. (%) | Best response by 6 cycles: Treatment failure [2, 8]: 0 (0) no. (%) | Overall composite remission rate (CR/CRh/CRi) [2, 8]: 6 (50, 21.1–78) no. (%, 95% CI) | Overall response rate (CR/CRh/CRi/MLFS) [2, 8]: 7 (58.3, 27.7–84.8) no. (%, 95% CI) | Best response by 6 cycles: CR [2, 10]: 5 (18.5) no. (%) | Best response by 6 cycles: CRh [2, 10]: 4 (14.8) no. (%) | Best response by 6 cycles: CRi [2, 10]: 2 (7.4) no. (%) | Best response by 6 cycles: MLFS [2, 10]: 2 (7.4) no. (%) | Best response by 6 cycles: NE (not evaluable) [2, 10]: 4 (14.8) no. (%) | Best response by 6 cycles: SD [2, 10]: 8 (29.6) no. (%) | Best response by 6 cycles: Treatment failure [2, 10]: 2 (7.4) no. (%) | Overall composite remission rate (CR/CRh/CRi) [2, 10]: 11 (40.7, 22.4–61.2) no. (%, 95% CI) | Overall response rate (CR/CRh/CRi/MLFS) [2, 10]: 13 (48.2, 28.7–68.1) no. (%, 95% CI) | Overall composite remission rate (CR/CRi/CRh) ([2]; patients with a TP53 mutation (n = 20), irrespective of group, 9/20): 45% | True CR rate ([2]; patients with mutant TP53 who received 25 mg TP-0903 + decitabine, 3 of 9): 33.3% | Treatment discontinuation: AEs ([3]; group 1, 37 mg TP-0903 + decitabine): 13% | Off treatment for reason: Adverse event ([3]; group 1, 37 mg, N = 15): 2 (13.3) n (%) | Treatment discontinuation: AEs ([3]; group 2, 25 mg TP-0903 + decitabine): 17% | Off treatment for reason: Adverse event ([3]; group 2, 25 mg, N = 12): 2 (16.7) n (%) | Off treatment for reason: Adverse event ([3]; overall, N = 27): 4 (14.8) n (%)
